How the values were obtained:
[1] = Acute toxicity (LD50) in mice, per os; conditions: mouse, in vivo, po
Source text: Acute toxicity was studied by determining the LD50 in mice, the derivatives being administered per os.

[2] = test system: exploration response in mice; assay: Psychostimulating activity: increase of exploration response in mice (actimetry); format: in vivo; conditions: Mus musculus, po, per os, dose which increases exploration response by 50%
Source text: The psychostimulating activity was studied by determining the dose which increases the exploration response in mice (actimetry) by 50% (ED50),according to the method described by BOISSIER J.R. and SIMON P. (Arc. Int. Pharmacolyn, 1965, 212-221158).

[3] = Group toxicity (LD50 grouped mice / LD50 isolated mice); conditions: mouse, in vivo
[4] = test system: mortality with pentetrazole in mice; assay: Potentiation of mortality with pentetrazole in mice; format: in vivo; conditions: per os
[5] = test system: ptose with reserpine in mice; assay: Ptose antagonism with reserpine in mice; format: in vivo; conditions: Mus musculus, po, per os
[6] = test system: sleep in mice; assay: Anti-sleep activity in mice; format: in vivo
[7] = test system: dog cardiovascular system; assay: Secondary action on the dog cardiovascular system, intravenous; format: in vivo; conditions: intravenous administration
[8] = test system: rat isolated duodenum; assay: In vitro papaverine spasmolytic activity: duodenum contractions in rats induced by barium chloride; conditions: for Spasmolytic activity (papaverine hydrochloride = 1): in vitro, rat duodenum, barium chloride, relative to papaverine hydrochloride = 1
Procedure: The papaverine spasmolytic activity was measured "in vitro" by the concentration ratio: active principle/papaverine hydrochloride concentration, which reduces duodenum contractions in rats, induced by barium chloride, by 50% according to the method of POMARET J. C., SERGANT - ODY M., POURRIAS B. and HUGUET G. (Therapie, 1969, 24, 109-143).
(§1) Table V below gives, by way of example, the complementary pharmacological activities such as antiserotonin, adrenolytic and atropinic activities for derivatives N° 21, 23 and 33, the spasmolytic activity of which is the greatest for the rat isolated duodenum.

[9] = Anorectic action in rats; format: in vivo
[10] = test system: aggressiveness in mice; assay: Aggressiveness in mice in the electric struggle test; format: in vivo; conditions: Mus musculus, po, per os, read-out: increase in aggressiveness in the electric struggle test ED50
[11] = Chronic toxicity in rats, oral; format: in vivo; conditions: 6 out of 7 days
[12] = test system: neurotic depression, neurasthenia and school overwork; assay: Clinical test in neurotic depression, neurasthenia and school overwork; format: in vivo, adults; conditions: 30 mg daily oral, one month
Procedure: (§2) By way of example, clinical tests were carried out on derivatives N° 5 and 21.
Derivative N° 5 was administered at a dose of 30 mg daily in three oral administrations of 10 mg to 6 adults treated for neurotic depression, neurasthenia and school overwork. The following results were obtained after treatment for one month: […]

[13] = test system: rabbit aorta; assay: In vitro spasmolytic action on the rabbit aorta; conditions: papaverine hydrochloride = 1
Source text: as §1

[14] = test system: rabbit isolated ear; assay: In vitro spasmolytic action on the rabbit isolated ear; conditions: papaverine hydrochloride = 1
Source text: as §1

[15] = test system: paw vessels of the dog; assay: In vivo spasmolytic action on paw vessels of the dog; conditions: papaverine hydrochloride = 1
Source text: as §1

[16] = test system: Guinea-pig seminal vesicle; assay: In vitro adrenolytic action on the Guinea-pig seminal vesicle; conditions: Yohimbine hydrochloride = 1
Source text: as §1

[17] = test system: Guinea-pig ileum; assay: In vitro atropinic action on the Guinea-pig ileum; conditions: Atropine sulfate = 1
Source text: as §1

[18] = test system: female rat uterus in oestrus; assay: In vitro anti-serotonin activity on the female rat uterus in oestrus; conditions: Methysergide = 1
Source text: as §1

[19] = test system: arteritis of the lower limbs, cerebral vascular sclerosis, sequelae of hemiplegia; assay: Clinical test in arteritis of the lower limbs, cerebral vascular sclerosis, sequelae of hemiplegia; format: in vivo, adults; conditions: 15 mg/day oral, one month
Procedure: as §2

[20] = cerebral vascular sclerosis, 4 cases

Compound	LD50 [1]	ED50 [2]	selectivity ratio [3]	Potentiation of mortality with pentetrazole in mice ED50 [4]	ED50 [5]	Anti-sleep activity in mice [6]	secondary action on the dog cardiovascular system [7]	Spasmolytic activity (papaverine hydrochloride = 1) [8]	also measured
O=C(O)CCCN1CCN(CCOC(c2ccccc2)c2ccccc2)CC1 [Derivative 3]	1500 mg/kg	80 mg/kg	1.25	> 300 mg/kg	160 mg/kg	Nil	devoid of any secondary action		
CCOC(=O)CCN1CCN(CCOC(c2ccccc2)c2ccccc2)CC1 [Derivative 16]	2000 mg/kg	100 mg/kg	0.8	> 400 mg/kg	190 mg/kg	Nil	devoid of any secondary action	1,5	
O=C(O)CCN1CCN(CCOC(c2ccccc2)c2ccc(F)cc2)CC1 (stereo not shown) [Derivative 5]	800 mg/kg	22 mg/kg	0.6	160 mg/kg	100 mg/kg	Nil	devoid of any secondary action		anorectic action in rats [9]: absence of anorectic action; ED50 [10]: 6.5 mg/kg; chronic toxicity ([11]; oral, 80 mg/kg daily): low chronic toxicity; tolerance in chronic administration ([11]; oral, 80 mg/kg daily): well tolerated; presence of a psychostimulating action ([12]; 6 adults): 5 out of 6; Nil results, number of cases ([12]; neurasthenia (1 case)): 1 cases; Excellent results, number of cases ([12]; neurotic depression (2 cases)): 1 cases; Good results, number of cases ([12]; neurotic depression (2 cases)): 1 cases; Excellent results, number of cases ([12]; school overwork (3 cases)): 2 cases; Good results, number of cases ([12]; school overwork (3 cases)): 1 cases
O=C(CN1CCN(CCOC(c2ccccc2)c2ccccc2)CC1)N1CCN(Cc2ccc3c(c2)OCO3)CC1 [Derivative 33, 1-(piperonylpiperazinocarbonylmethyl)-4-(2-benzhydryloxyethyl)piperazine trimaleate]	600 mg/kg	25 mg/kg						10,5	spasmolytic activity for the rat isolated duodenum (in words) [8]: greatest; In vitro spasmolytic action on the rabbit aorta [13]: 5; In vitro spasmolytic action on the rabbit isolated ear [14]: 0,5; In vivo spasmolytic action on paw vessels of the dog [15]: 9; In vitro adrenolytic action on the Guinea-pig seminal vesicle [16]: 6; In vitro atropinic action on the Guinea-pig ileum [17]: > 0,01
CCOC(=O)CCCN1CCN(CCOC(c2ccc(F)cc2)c2ccc(F)cc2)CC1 [Derivative 23]	800 mg/kg	50 mg/kg						13,5	spasmolytic activity for the rat isolated duodenum (in words) [8]: greatest; In vitro spasmolytic action on the rabbit aorta [13]: 3; In vitro spasmolytic action on the rabbit isolated ear [14]: 0,3; In vivo spasmolytic action on paw vessels of the dog [15]: 2; In vitro adrenolytic action on the Guinea-pig seminal vesicle [16]: 3; In vitro atropinic action on the Guinea-pig ileum [17]: > 0,01
CCOC(=O)CCN1CCN(CCOC(c2ccc(F)cc2)c2ccc(F)cc2)CC1.Cl.Cl [Derivative 21, 1-(ethoxycarbonylethyl)-4[2(4,4'-difluorobenzhydryloxy)-ethyl]piperazine dihydrochloride]	750 mg/kg	30 mg/kg	0.4	> 100 mg/kg	70 mg/kg	Nil	devoid of any secondary action	8,5	spasmolytic activity for the rat isolated duodenum (in words) [8]: greatest; spasmolytic activity of the papaverine type in the tests as a whole (in words) ([8]; tests as a whole): excellent spasmolytic activity; tolerance in chronic toxicity study ([11]; per os, 40 mg/kg, six months): perfectly well tolerated; In vitro spasmolytic action on the rabbit aorta [13]: 5; In vitro spasmolytic action on the rabbit isolated ear [14]: 1,5; In vivo spasmolytic action on paw vessels of the dog [15]: 30; In vitro anti-serotonin activity on the female rat uterus in oestrus [18]: 0,07; In vitro adrenolytic action on the Guinea-pig seminal vesicle [16]: 4; In vitro atropinic action on the Guinea-pig ileum [17]: > 0,01; Improvement of the psychic state ([19]; arteritis of the lower limbs, 8 cases): 4 times; Improvement in intellectual activity [19, 20]: once; Improvement of the psychic state [19, 20]: twice; Improvement of motor disturbances ([19]; hemiplegia sequelae, 2 cases): 0; Improvement of the psychic state ([19]; hemiplegia sequelae, 2 cases): once
COC(=O)CCCCN1CCN(CCOC(c2ccc(F)cc2)c2ccc(F)cc2)CC1 [Derivative 14]	500 mg/kg	45 mg/kg						3,5	
CCCCOC(=O)CCN1CCN(CCOC(c2ccc(F)cc2)c2ccc(F)cc2)CC1 [Derivative 25]	500 mg/kg	40 mg/kg						0,5	
O=C(O)CCN1CCN(CCOC(c2ccccc2)c2ccccc2)CC1 [Derivative 2]	2250 mg/kg	80 mg/kg	0.6	320 mg/kg	55 mg/kg	Nil	devoid of any secondary action		
CCOC(=O)CN1CCN(CCOC(c2ccc(F)cc2)c2ccc(F)cc2)CC1 [Derivative 15]	1200 mg/kg	40 mg/kg						6,5	
O=C(O)CCN1CCN(CCOC(c2ccc(F)cc2)c2ccc(F)cc2)CC1 [Derivative 11]	700 mg/kg	30 mg/kg						0,1	
COc1ccccc1N1CCN(C(=O)CN2CCN(CCOC(c3ccccc3)c3ccccc3)CC2)CC1 [Derivative 32]	1200 mg/kg	100 mg/kg						2	

Source: US4096259A, “Non-amphetaminic psychostimulating compositions of 1,4-disubstituted piperazines” (priority 1975, dated 1978)
